Experimental data from patent US10800755B2, “2,6-disubstituted pyridine derivative” (Sumitomo Dainippon Pharma Co., Ltd., priority 2017, dated 2020).
Like-named read-outs stand apart in the source and are kept apart here.

Tests used:
human D4 receptor [1] = biological target: T1, human D4 receptor (Homo sapiens (Human), UniProt P21917); assay: Test 2: binding activity to human D4 receptor ([3H] dopamine, CHO cell membrane)
Description: (§1) Test 2: Evaluation of Binding Activity to Human 5-HT1A Receptor, Human D4 Receptor, and Human D2 Receptor
(§2) CHO cell membrane fraction in which human 5-HT1A receptor, human D4 receptor, and human D2 receptor were expressed was purchased from PerkinElmer Co., Ltd. In the evaluation test of binding, the test compound dissolved in DMSO, each receptor membrane preparation diluted with buffer solution, and [3H] […] The nonspecific binding to each receptor was evaluated by a competition binding experiment in the presence of 10 μmol/L 8-OH-DPAT, 10 μmol/L dopamine, or 10 μmol/L spiperone, respectively.

human 5-HT1A receptor [2] = biological target: T2, human 5-HT1A receptor (Homo sapiens (Human), UniProt P08908); assay: Test 2: binding activity to human 5-HT1A receptor ([3H] 8-OH-DPAT, CHO cell membrane)
T2 sequence (P08908 whole entry): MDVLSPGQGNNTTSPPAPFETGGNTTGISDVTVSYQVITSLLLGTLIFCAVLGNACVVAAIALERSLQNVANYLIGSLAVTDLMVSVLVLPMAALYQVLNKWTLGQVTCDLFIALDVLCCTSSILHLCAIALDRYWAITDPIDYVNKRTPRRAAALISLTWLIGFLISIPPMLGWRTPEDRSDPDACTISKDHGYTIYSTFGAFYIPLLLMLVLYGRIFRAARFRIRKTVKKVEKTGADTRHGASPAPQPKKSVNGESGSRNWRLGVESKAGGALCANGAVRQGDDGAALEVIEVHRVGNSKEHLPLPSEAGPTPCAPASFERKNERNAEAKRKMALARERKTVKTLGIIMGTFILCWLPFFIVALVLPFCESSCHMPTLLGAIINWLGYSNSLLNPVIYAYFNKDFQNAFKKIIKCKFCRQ
Description: as §1, §2

human D2 receptor = human D2 receptor (Homo sapiens (Human), UniProt P14416); assay: Test 2: binding activity to human D2 receptor ([3H] spiperone, CHO cell membrane)
Chain of human D2 receptor (P14416 whole entry): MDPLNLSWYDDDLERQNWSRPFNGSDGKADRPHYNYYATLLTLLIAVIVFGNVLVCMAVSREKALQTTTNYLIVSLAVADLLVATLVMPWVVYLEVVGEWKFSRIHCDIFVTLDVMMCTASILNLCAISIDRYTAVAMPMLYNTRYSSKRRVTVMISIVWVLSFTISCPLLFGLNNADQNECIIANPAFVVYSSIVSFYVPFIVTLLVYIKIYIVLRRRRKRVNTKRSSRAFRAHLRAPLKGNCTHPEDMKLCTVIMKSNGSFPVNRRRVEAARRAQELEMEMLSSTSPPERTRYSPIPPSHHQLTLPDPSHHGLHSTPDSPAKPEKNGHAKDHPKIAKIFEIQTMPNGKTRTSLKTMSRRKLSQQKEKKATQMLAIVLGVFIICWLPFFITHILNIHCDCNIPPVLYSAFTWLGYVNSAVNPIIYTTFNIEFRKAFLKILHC
Description: as §1, §2

hERG channel [3] = biological target: T3, hERG channel (Homo sapiens (Human), UniProt Q12809); assay: Test 5-1: activity for inhibiting hERG channel (whole-cell patch clamp, hERG-CHO cell, Qpatch); assay type: cell-based; conditions: read-out: hERG inhibition IC50
T3 sequence (Q12809 whole entry): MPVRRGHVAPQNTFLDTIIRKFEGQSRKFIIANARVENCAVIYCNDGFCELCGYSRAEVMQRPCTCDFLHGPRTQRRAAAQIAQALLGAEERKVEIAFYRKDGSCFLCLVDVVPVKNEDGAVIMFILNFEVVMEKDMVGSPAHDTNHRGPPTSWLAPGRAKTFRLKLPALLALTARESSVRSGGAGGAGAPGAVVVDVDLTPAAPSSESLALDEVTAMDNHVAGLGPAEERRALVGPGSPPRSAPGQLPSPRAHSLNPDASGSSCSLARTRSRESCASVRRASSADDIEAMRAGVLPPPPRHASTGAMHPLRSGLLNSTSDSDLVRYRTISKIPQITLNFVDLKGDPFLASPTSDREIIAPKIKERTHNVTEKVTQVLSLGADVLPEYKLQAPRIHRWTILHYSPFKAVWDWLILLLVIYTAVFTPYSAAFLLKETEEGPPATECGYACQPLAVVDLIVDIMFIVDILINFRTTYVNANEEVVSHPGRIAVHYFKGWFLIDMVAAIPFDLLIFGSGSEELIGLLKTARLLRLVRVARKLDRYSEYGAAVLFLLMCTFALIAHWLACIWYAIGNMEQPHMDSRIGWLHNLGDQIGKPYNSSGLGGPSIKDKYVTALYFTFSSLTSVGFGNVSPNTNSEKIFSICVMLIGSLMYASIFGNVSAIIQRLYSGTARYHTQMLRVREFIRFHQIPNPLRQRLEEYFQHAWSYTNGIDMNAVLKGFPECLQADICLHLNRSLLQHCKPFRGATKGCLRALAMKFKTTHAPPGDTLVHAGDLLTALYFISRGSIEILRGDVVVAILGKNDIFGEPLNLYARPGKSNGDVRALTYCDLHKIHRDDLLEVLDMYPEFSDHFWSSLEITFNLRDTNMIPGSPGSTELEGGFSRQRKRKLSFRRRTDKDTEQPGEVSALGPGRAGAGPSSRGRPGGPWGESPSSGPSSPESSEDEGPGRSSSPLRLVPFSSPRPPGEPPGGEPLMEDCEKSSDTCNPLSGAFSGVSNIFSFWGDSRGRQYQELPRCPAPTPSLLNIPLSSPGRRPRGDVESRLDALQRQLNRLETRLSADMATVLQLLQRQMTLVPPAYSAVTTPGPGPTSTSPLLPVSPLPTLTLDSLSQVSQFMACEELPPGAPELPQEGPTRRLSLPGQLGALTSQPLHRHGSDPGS
Description: Test 5-1: Evaluation of Activity for Inhibiting hERG Channel
(§3) The activity of the present compound for inhibiting hERG channel was measured by whole-cell patch clamp method with auto patch clamp system, using CHO cell wherein hERG channel involved in human rapidly activating delayed rectifier potassium current (IKr) was forcibly expressed.
(§4) hERG-CHO cell purchased from ChanTest was incubated at 37° C. in a CO2 incubator, and the cell was exfoliated from the flask with trypsin to prepare a cell suspension, shortly before the hERG current measurement.
(§5) Extracellular fluid: 2 mmol/L CaCl2, 1 mmol/L MgCl2, 10 mmol/L HEPES, 4 mmol/L KCl, 145 mmol/L NaCl, 10 mmol/L glucose
Intracellular fluid: 5.4 mmol/L CaCl2, 1.8 mmol/L MgCl2, 10 mmol/L HEPES, 31 mmol/L KOH, 10 mmol/L EGTA, 120 mmol/L KCl, 4 mmol/L Na2-ATP
Test compound solution: The test compound was dissolved in DMSO by adjusting the concentration to 2 mmol/L or 20 mmol/L to prepare each test compound solution. […] (Measurement of Current Value and Data Analysis)
The cell suspension, the extracellular fluid, the intracellular fluid, and the measurement plate were set in an auto patch clamp system, and the hERG current was measured by whole-cell patch clamp method. […] Each pulse interval was 15 seconds. The data analysis was carried out with Qpatch Assay Software (Biolin Scientific). The test was carried out applying increscently 4 concentrations of each test compound, and the average of the peak tail currents that were obtained by the last 3 stimulations in each applied concentration was determined to be the evaluated data. By using the current inhibition rate for the pre-applied current at each concentration of each test compound, IC50 value was calculated by Hill equation with the software.

human D4 receptor [4] = biological target: T1, human D4 receptor; assay: Test 1: agonistic activity for human D4 receptor (aequorin/Gα16 luminescence in CHO-K1 cell); assay type: cell-based; conditions: for D4 agonistic activity Emax / Emax: 100% = 10 μmol/L endogenous ligand; for EC50: CHO-K1 cell, aequorin luminescence; for Emax: CHO-K1
Description: (§6) Test 1: Evaluation of Agonistic Activity for Human 5-HT1A Receptor and Human D4 Receptor
(§7) Aequorin, Gα16 proteins, and each receptor were transiently expressed in CHO-K1 cell (Chinese hamster ovary), and seeded to 384-well plate. The plate was incubated in a CO2 incubator at 37° C. for 24 hours. Each example compound dissolved in DMSO was added thereto, and the change of luminescence amount was measured with Hamamatsu FDSS/μCELL System (Hamamatsu Photonics).

human 5-HT1A receptor [5] = biological target: T2, human 5-HT1A receptor; assay: Test 1: agonistic activity for human 5-HT1A receptor (aequorin/Gα16 luminescence in CHO-K1 cell); assay type: cell-based; conditions: for EC50: CHO-K1 cell, aequorin luminescence; for 5-HT1A agonistic activity Emax / Emax: 100% = 10 μmol/L endogenous ligand; for Emax: CHO-K1
Description: as §6, §7

[6] = Test 3-1: metabolic stability test of human liver microsome (0.1 mg/mL); assay type: in vitro ADME; conditions: test compound 0.1 μmol/L, 37° C., 30 minutes
Description: Test 3-1: Metabolic Stability Test of Human Liver Microsome
The stability of the present compounds for human liver microsome metabolism was evaluated as mentioned below. The used human liver microsome was obtained from Xenontech. Human liver microsome, NADPH, and each test compound were mixed in 25 mmol/L phosphate buffer solution (pH 7.4) to adjust each concentration as shown below, and the mixture was incubated at 37° C. for 30 minutes. • human liver microsome: 0.1 mg/mL • NAPDH: 3.2 mmol/L • test compound: 0.1 μmol/L
The residual ratio of the test compound in each sample after the incubation for 30 minutes was measured with a LC-MS, and the metabolic stability of human liver microsome was calculated about each test compound with the following formula. Metabolic stability of human liver microsome (mL/min/mg protein)=−LN (residual ratio)/“reaction time”/“concentration of human liver microsome”

hERG channel [7] = biological target: T3, hERG channel; assay: Test 5-2: activity for inhibiting hERG channel (whole-cell patch clamp, hERG-CHO cell, Qube); assay type: cell-based; conditions: read-out: hERG inhibition IC50
Description: Test 5-2: Evaluation of Activity for Inhibiting hERG Channel
as §3, §4, §5
Intracellular fluid: 10 mmol/L HEPES, 10 mmol/L EGTA, 20 mmol/L KCl, 130 mmol/L KF
Test compound solution: The compound was dissolved in DMSO by adjusting the concentration to 2 mmol/L or 20 mmol/L to prepare each test compound solution. […] (Measurement of Current Value and Data Analysis)
The cell suspension, the extracellular fluid, the intracellular fluid, and the measurement plate were set in an auto patch clamp system, and the hERG current was measured by whole-cell patch clamp method. The voltage-protocol was as follows: the holding potential was adjusted to −80 mV, the depolarizing pulse was added at −50 mV to +20 mV for 5 seconds, the repolarizing pulse was added at −50 mV for 5 seconds, then the potential was returned to the holding potential. Each pulse interval was 15 seconds. The data analysis was carried out with Qube Assay Software (Sophion Scientific). The test was carried out applying increscently 4 concentrations of each test compound, and the average of the peak tail currents that were obtained by the last 3 stimulations in each applied concentration was made to be the evaluated data. By using the current inhibition rate for the pre-applied current at each concentration of each test compound, IC50 value was calculated by Hill equation with the software.

[8] = [3H] dopamine, read-out: D4 binding affinity (Ki value)
[9] = [3H] 8-OH-DPAT, read-out: 5-HT1A binding affinity (Ki value)
[10] = [3H] spiperone, read-out: D2 binding affinity (Ki value)

T1 sequence (P21917 whole entry): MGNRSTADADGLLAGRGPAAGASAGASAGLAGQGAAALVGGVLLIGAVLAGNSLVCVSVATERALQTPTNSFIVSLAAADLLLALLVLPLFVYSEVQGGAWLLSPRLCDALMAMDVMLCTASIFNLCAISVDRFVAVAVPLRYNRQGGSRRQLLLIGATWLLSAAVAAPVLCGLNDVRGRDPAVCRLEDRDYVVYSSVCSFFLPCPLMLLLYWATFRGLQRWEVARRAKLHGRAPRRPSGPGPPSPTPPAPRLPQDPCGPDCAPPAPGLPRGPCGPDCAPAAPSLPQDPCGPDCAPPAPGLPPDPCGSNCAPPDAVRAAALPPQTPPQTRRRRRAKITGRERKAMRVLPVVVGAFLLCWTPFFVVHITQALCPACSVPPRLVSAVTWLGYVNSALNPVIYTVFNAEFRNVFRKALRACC

SMILES	Ki (human D4 receptor [1]; [8]) [nM]	Ki (human 5-HT1A receptor [2]; [9]) [nM]	Ki (human D2 receptor; [10]) [nM]	D4 agonistic activity Emax (human D4 receptor [4]) [%]	Metabolic stability of human liver microsome [6] [mL/min/mg protein]	5-HT1A agonistic activity Emax (human 5-HT1A receptor [5]) [%]	IC50 (hERG channel [3]) [nM]	EC50 (human D4 receptor [4]) [nM]	EC50 (human 5-HT1A receptor [5]) [nM]	Ki (human D4 receptor [1]) [nM]	Emax (human D4 receptor [4]) [%]	IC50 (hERG channel [7]) [nM]	Emax (human 5-HT1A receptor [5]) [%]	Ki (human 5-HT1A receptor [2]) [nM]	Ki (human D2 receptor) [nM]
O=C(NCCN1CCC(c2cccc(C(F)(F)F)n2)CC1)C1CCCOC1 (stereo not drawn) [Example 2]	109	11	> 10000	61	0.069	86	> 10000	58.9	323	–	–	–	–	–	–
Cc1cccc(C2=CCN(CCNC(=O)C3CCOCC3)CC2)n1 [Example 29, N-[2-(6-Methyl-3′,6′-dihydro[2,4′-bipyridin]-1′(2′H)-yl)ethyl]-tetrahydro-2H-pyran-4-carboxamide]	–	0.4	> 10000	–	<0.05	–	–	24	< 10	22	74	> 10000	50	–	–
Cc1cccc(C2=CCN(CCNC(=O)C3CCCCO3)CC2)n1 (stereo not drawn) [Example 20]	–	–	–	–	<0.05	–	–	15	57	92	60	> 10000	40	6.8	> 10000
O=C(NCCN1CC=C(c2cccc(C(F)(F)F)n2)CC1)C1CCCOC1 (stereo not drawn) [Example 16, N-{2-[6-(Trifluoromethyl)-3′,6′-dihydro[2,4′-bipyridin]-1′ (2′H)-yl]ethyl}-tetrahydro-2H-pyran-3-carboxamide]	–	6	1690	–	<0.05	–	–	31	43	27	51	> 10000	36	–	–
COCC(C)(C)C(=O)NCCN1CC=C(c2cccc(C(F)(F)F)n2)CC1 [Example 18]	–	21	2210	–	<0.05	–	–	37	68	19	61	> 10000	43	–	–
O=C(NCCN1CC=C(c2cccc(C(F)(F)F)n2)CC1)C1CCC(F)(F)CC1 [Example 12, 4,4-Difluoro-N-{2-[6-(trifluoromethyl)-3′,6′-dihydro[2,4′-bipyridin]-1′ (2′H)-yl]ethyl}-cyclohexane-1-carboxamide]	–	0.2	357	–	0.115	–	–	35	< 10	4.5	52	3500	43	–	–

More lines, main results first:

Ki (human D4 receptor [1]; [8]) [nM]	Ki (human 5-HT1A receptor [2]; [9]) [nM]	Ki (human D2 receptor; [10]) [nM]	D4 agonistic activity Emax (human D4 receptor [4]) [%]	Metabolic stability of human liver microsome [6] [mL/min/mg protein]	5-HT1A agonistic activity Emax (human 5-HT1A receptor [5]) [%]	SMILES	IC50 (hERG channel [3]) [nM]	EC50 (human D4 receptor [4]) [nM]	EC50 (human 5-HT1A receptor [5]) [nM]	Ki (human D4 receptor [1]) [nM]	Emax (human D4 receptor [4]) [%]	IC50 (hERG channel [7]) [nM]	Emax (human 5-HT1A receptor [5]) [%]	Ki (human 5-HT1A receptor [2]) [nM]	Ki (human D2 receptor) [nM]
198	7.1	> 10000	76	<0.01	–	Cc1cccc(C2CCN(CCNC(=O)C3CC4CCC3O4)CC2)n1 (stereo not drawn) [Example 3]	32100	33.5	38	–	–	–	–	–	–
43	13	> 10000	58	0.017	106	COCC1(C(=O)NCCN2CCC(c3cccc(C(F)(F)F)n3)CC2)CC1 [Example 7]	5600	< 10	< 10	–	–	–	–	–	–
–	–	–	85	0.015	90	Cc1cccc(C2CCN(CCNC(=O)C(C)(C)C)CC2)n1 [Example 10]	> 10000	–	–	–	–	–	–	–	–
505	13	> 10000	–	<0.05	–	Cc1cccc(C2CCN(CCNC(=O)C3CCCOC3)CC2)n1 (stereo not drawn) [Example 15]	–	41	100	–	55	> 10000	33	–	–
26	0.4	> 10000	71	<0.01	90	Cc1cccc(C2CCN(CCNC(=O)C3CCC(F)(F)CC3)CC2)n1 [Example 4]	4000	25.1	< 10	–	–	–	–	–	–
10	37	> 10000	–	<0.05	–	CN(C)c1cccc(C2CCN(CCNC(=O)C3CCOCC3)CC2)n1 [Example 38, N-(2-{4-[6-(Dimethylamino)pyridin-2-yl]piperidin-1-yl}ethyl)-tetrahydro-2H-pyran-4-carboxamide]	–	42	86	–	35	> 10000	50	–	–
201	15	2170	–	<0.05	–	O=C(NCCN1CCC(c2cccc(C(F)(F)F)n2)CC1)[C@H]1C[C@@H]2CC[C@H]1O2 [Example 21]	–	65	84	–	62	> 10000	30	–	–
